For data set [1], the target named is T1, N-formyl peptide receptor 2 (Homo sapiens, UniProt P25090).
T1 sequence (P25090 whole entry): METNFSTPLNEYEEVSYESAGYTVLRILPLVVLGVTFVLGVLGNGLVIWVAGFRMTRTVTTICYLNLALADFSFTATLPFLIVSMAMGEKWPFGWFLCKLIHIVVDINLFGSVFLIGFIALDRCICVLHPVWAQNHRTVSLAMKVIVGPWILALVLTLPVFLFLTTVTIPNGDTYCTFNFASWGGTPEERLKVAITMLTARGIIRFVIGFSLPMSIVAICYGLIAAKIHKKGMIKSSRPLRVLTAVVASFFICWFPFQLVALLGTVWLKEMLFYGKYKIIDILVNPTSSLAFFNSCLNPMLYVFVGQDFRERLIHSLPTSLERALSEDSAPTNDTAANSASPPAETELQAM
Put plainly: Activity at human FPRL1-mediated calcium mobilization in CHO cells. In kind it is functional, cell-based.

For data set [2], the species on record is Mus musculus. Put plainly: Reduction of swelling in mouse ear at 25 ug. It is filed as functional. Also noted: scale not given: the % may be the effect or the level left.
The species named for data set [3] is Mus musculus. Put plainly: Reduction of swelling in mouse ear at 0.25 ug. Also on record: scale not given: the % may be the effect or the level left. In kind it is functional.
The test system of data set [4] is PMNL. Put plainly: Inhibition of fMLP-induced PMN migration. It is filed as functional, cell-based. Particulars: Homo sapiens.
For data set [5], the species on record is Mus musculus. Put plainly: Reduction of swelling in mouse ear at 2.5 ug. It is filed as functional. Also noted: scale not given: the % may be the effect or the level left.
The test system of data set [6] is PMNL. Put plainly: Inhibition of IL8-induced PMN migration. In kind it is functional, cell-based. Conditions: Homo sapiens.
The test system of data set [7] is Mus musculus. Put plainly: Reduction of edema in mouse ear inflammation model at 5 mg/kg, po. It is filed as functional. Also on record: scale not given: the % may be the effect or the level left.
For data set [8], the system named is Mus musculus. Put plainly: Reduction of edema in mouse ear inflammation model at 50 mg/kg, po. In kind it is functional. Also noted: scale not given: the % may be the effect or the level left.
In data set [9] the test system is Mus musculus. Put plainly: Unbound ligand concentration in mouse plasma at 16.6 mg/kg. Conditions: in vivo. Also on record: dose 16.6 mg/kg. In kind it is ADME, organism-based.
The nature of data set [10]: Bioavailability in rat at 2 mg/kg, po. It is filed as ADME, organism-based. Particulars: in vivo.
Data set [11] has as its system Mus musculus. Put plainly: Reduction of edema in mouse ear inflammation model at 16.6 mg/kg, po. In kind it is functional. Also noted: scale not given: the % may be the effect or the level left.
For data set [12], the system named is Mus musculus. Put plainly: Unbound ligand concentration in mouse plasma at 5 mg/kg. In kind it is ADME, organism-based. Also noted: dose 5 mg/kg. Particulars: in vivo.
The test system of data set [13] is Mus musculus. Put plainly: Unbound ligand concentration in mouse plasma at 50 mg/kg. Also noted: dose 50 mg/kg. In kind it is ADME, organism-based. Conditions: in vivo.
A short description of data set [14]: Clearance in rat at 0.5 mg/kg, iv. In kind it is ADME, organism-based. Also on record: dose 0.5 mg/kg, route intravenous. Particulars: in vivo.
Data set [15] is described as follows: Protein binding in mouse plasma. In kind it is ADME, organism-based. Particulars: read-out: PPB (converted).
Data set [16] can be described thus: Half life in rat at 0.5 mg/kg, iv. Conditions: in vivo. Also noted: dose 0.5 mg/kg, route intravenous. In kind it is ADME, organism-based.
Data set [17] concerns Mus musculus. Put plainly: Reduction of edema in mouse ear inflammation model at 1 mg/kg, po. It is filed as functional. Also on record: scale not given: the % may be the effect or the level left.
For data set [18], the species on record is Mus musculus. Put plainly: Reduction of swelling in mouse ear at 30 ug. It is filed as functional. Also on record: scale not given: the % may be the effect or the level left.

Each structure is given as a SMILES string. Calls of active or inactive are those of the source. No cut-off for these calls is given here.

`CC1C(N(C)C(=O)N(C)c2ccc(I)cc2)C(=O)N(c2ccccc2)N1C` (stereo not given): the EC50 in data set [1] is more than 10000 nM. Moreover, the Activity in the data set filed under Mus musculus [2] was determined as 8%; in the data set listed under Mus musculus [3], 2%; in the data set listed under Mus musculus [5] it was 8%. Besides, the IC50 in the data set on PMNL [4] and in the data set on PMNL [6] was more than 10000 nM each time. In the case of `CSc1ccc(NC(=O)Nc2c(C(C)C)n(C)n(-c3cnc4ccccc4c3)c2=O)cc1`, the concentration giving a half-maximal response (EC50) in data set [1] was found to be 30 nM. As to `CC(C)c1c(NC(=O)Nc2ccc(Cl)cc2)c(=O)n(-c2ccccc2)n1C`, the figures for the Activity in the data set with Mus musculus [7], in the data set with Mus musculus [8] and with Mus musculus [11] were 11%, 58% and 39%, respectively. In addition, the unbound plasma concentration turned out to be 17 nM with Mus musculus [9], 14 nM in the data set with Mus musculus [12] and 185 nM with Mus musculus [13]. In data set [10], the bioavailability worked out at 91%. Besides, the clearance in data set [14] was 2.1 mL/min/kg. For the same compound, in [15], the fraction unbound is 0.021. In data set [16], this compound showed a half-life of 2.78 h. For the same compound, the IC50 in the data set with PMNL [4] turned out to be 640 nM; in the data set on PMNL [6], 240 nM. On to `CCc1c(NC(=O)Nc2ccc(Cl)cc2)c(=O)n(-c2ccccc2)n1C`, for which the EC50 in [1] amounted to 140 nM. On to `COc1ccc(NC(=O)Nc2c(C)n(C)n(-c3ccccc3)c2=O)cc1`, for which the EC50 in [1] turned out to be 2730 nM. Still for that read-out and setting: then `CCn1c(C(C)C)c(NC(=O)Nc2ccc(C)c(F)c2)c(=O)n1-c1ccccc1`, with 100 nM.

As to `CCCCC(Oc1ccccc1)[C@@H](O)/C=C/C=C\C=C\C=C\[C@@H](O)[C@@H](O)CCCC(=O)O` (stereo not given in full), in the data set listed under Mus musculus [2], the outcome was Active. Take `Cc1c(NC(=O)Nc2nccs2)c(=O)n(-c2ccccc2)n1C`: the half-maximal effective concentration (EC50) in data set [1] was more than 10000 nM. Still for that read-out and setting: then `CC(C)c1c(NC(=O)Nc2ccc(Cl)cc2)c(=O)n(-c2cnc3ccccc3c2)n1C`, with 80 nM; and `CC(C)c1c(NC(=O)Nc2ccc(Cl)cc2)c(=O)n(C2=NCCS2)n1C`, with 540 nM. `CC(C)c1c(NC(=O)Nc2ccc(C(F)(F)F)cc2)c(=O)n(C2=NCCS2)n1C`: the EC50 in [1] is 1470 nM. Take `Cc1c(NC(=O)Nc2ccc(I)cc2)c(=O)n(-c2ccccc2)n1C`: the EC50 in data set [1] was determined as 30 nM. For the same compound, the Activity in the data set listed under Mus musculus [2] is recorded as 52%; in the data set listed under Mus musculus [3], 31%; in the data set filed under Mus musculus [5], 35%. Further, the 50% inhibitory concentration (IC50) with PMNL [4] and in the data set on PMNL [6] was 2000 nM each time. For the compound `Cc1c(NC(=O)Nc2ccc(Cl)cc2)c(=O)n(-c2ccccc2)n1C`, the half-maximal effective concentration (EC50) in data set [1] is 490 nM. The same measure, in the same setting: then `Cc1c(NC(=O)Nc2ccc(Br)cc2)c(=O)n(-c2ccccc2)n1C`, with 90 nM; and `Cc1ccc(NC(=O)Nc2c(C(C)C)n(C)n(-c3ccccc3)c2=O)cc1F`, with 81 nM; and `Cc1c(NC(=O)Nc2cccc(Cl)c2)c(=O)n(-c2ccccc2)n1C`, with more than 10000 nM. Same read-out and setting: next, `Cc1c(NC(=O)Nc2ccc3c(c2)OCO3)c(=O)n(-c2ccccc2)n1C`: 5880 nM. Regarding `C[C@@H]1C[C@H]2[C@@H]3CCC4=CC(=O)C=C[C@]4(C)[C@@]3(F)[C@@H](O)C[C@]2(C)[C@@]1(O)C(=O)CO` [DEXAMETHASONE], the Activity in the data set with Mus musculus [17] is reported as 54%; in the data set listed under Mus musculus [18], 71%.

With `Cn1c(C(C)(C)C)c(NC(=O)Nc2ccc(Cl)cc2)c(=O)n1-c1ccccc1`, in [1], the EC50 is 23 nM. Still for that read-out and setting: then `CSc1ccc(NC(=O)Nc2c(C(C)C)n(C)n(C3=NCCS3)c2=O)cc1`, with 5130 nM; and `CC(C)c1c(NC(=O)Nc2ccccc2Cl)c(=O)n(-c2ccccc2)n1C`, with more than 10000 nM; and `CSc1ccc(NC(=O)Nc2c(C)n(C)n(-c3ccccc3)c2=O)cc1`, with 170 nM. Take `Cc1c(NC(=O)Nc2ccc(C(C)C)cc2)c(=O)n(-c2ccccc2)n1C`: the EC50 in data set [1] came out at 12300 nM. Take `Cc1c(NC(=O)Nc2ccc(C#N)cc2)c(=O)n(-c2ccccc2)n1C`: in data set [1], the EC50 came out at 3700 nM. As for `Cc1ccc(NC(=O)Nc2c(C)n(C)n(-c3ccccc3)c2=O)cc1F`, in [1], the 50% effective concentration (EC50) worked out at 980 nM.

As for `CC(C)c1c(NC(=O)Nc2ccc(Cl)cc2)c(=O)n(-c2cncnc2)n1C`, the half-maximal effective concentration (EC50) in data set [1] was determined as 250 nM. On the same count and under the same terms, next, `CCc1ccc(NC(=O)Nc2c(C)n(C)n(-c3ccccc3)c2=O)cc1`: 770 nM. Regarding `Cc1c(NC(=O)Nc2ccc(C(F)(F)F)cc2)c(=O)n(-c2ccccc2)n1C`, the EC50 in data set [1] came out at 100 nM. Still for that read-out and setting: next, `Cc1c(NC(=O)Nc2ccc(F)cc2)c(=O)n(-c2ccccc2)n1C`: 4850 nM; `Cc1ccc(NC(=O)Nc2c(C)n(C)n(-c3ccccc3)c2=O)cc1`: 1260 nM. On the same count and under the same terms, then `CC(C)c1c(NC(=O)Nc2ccc(C(F)(F)F)cc2)c(=O)n(-c2cncnc2)n1C`, with 150 nM; and `Cc1ccc(NC(=O)Nc2c(C(C)(C)C)n(C)n(-c3ccccc3)c2=O)cc1F`, with 83 nM; and `CSc1ccc(NC(=O)Nc2c(C(C)C)n(C)n(-c3cncnc3)c2=O)cc1`, with 43 nM.

Take `Cc1c(NC(=O)Nc2ccccc2)c(=O)n(-c2ccccc2)n1C`: in [1], the 50% effective concentration (EC50) was more than 10000 nM. For `Cc1c(NC(=O)Nc2ccccc2Cl)c(=O)n(-c2ccccc2)n1C`, the EC50 in data set [1] was more than 10000 nM. The same measure, in the same setting: next, `Cc1cc(NC(=O)Nc2c(C)n(C)n(-c3ccccc3)c2=O)ccc1F`: more than 10000 nM. Still for that read-out and setting: then `CC(C)c1c(NC(=O)Nc2ccc(C(F)(F)F)cc2)c(=O)n(-c2cnc3ccccc3c2)n1C`, with 44 nM. Same read-out and setting: next, `CCc1c(NC(=O)Nc2ccc(C)c(F)c2)c(=O)n(-c2ccccc2)n1C`: 310 nM.
